Experiments:
[1] = target: T1, human SGLT1 (Homo sapiens, UniProt P13866); experiment: SGLT1 assay: Na-dependent 14C-AMG uptake in CHO-K1 cells stably expressing human SGLT1; assay type: cell-based; conditions: for IC50: 500 μM AMG, 2 hours at 37° C.
T1 construct: expressed in transfected cells; host or cells: CHO-K1
T1 sequence (P13866 1-664): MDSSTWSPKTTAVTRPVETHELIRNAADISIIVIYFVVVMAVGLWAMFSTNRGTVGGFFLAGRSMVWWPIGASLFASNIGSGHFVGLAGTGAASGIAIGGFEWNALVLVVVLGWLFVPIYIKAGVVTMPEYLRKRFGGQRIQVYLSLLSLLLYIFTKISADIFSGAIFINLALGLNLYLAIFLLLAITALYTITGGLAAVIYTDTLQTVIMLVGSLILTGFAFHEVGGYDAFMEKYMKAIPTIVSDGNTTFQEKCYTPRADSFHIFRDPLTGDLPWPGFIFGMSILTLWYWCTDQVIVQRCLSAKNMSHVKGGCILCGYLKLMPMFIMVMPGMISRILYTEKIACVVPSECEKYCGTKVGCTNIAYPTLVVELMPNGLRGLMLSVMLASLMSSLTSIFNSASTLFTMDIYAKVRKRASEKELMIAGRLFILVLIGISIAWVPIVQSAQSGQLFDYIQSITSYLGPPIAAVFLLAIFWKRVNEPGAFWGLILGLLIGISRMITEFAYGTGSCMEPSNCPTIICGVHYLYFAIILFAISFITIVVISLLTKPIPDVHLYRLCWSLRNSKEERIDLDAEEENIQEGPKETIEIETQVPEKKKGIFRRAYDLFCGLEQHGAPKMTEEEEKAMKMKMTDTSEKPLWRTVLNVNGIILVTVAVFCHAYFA
How it was run: (§1)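 CHO-K1 cells stably expressing human SGLT1 or SGLT2, pretreated 24 h with 10 mM Na-butyrate, were exposed 10 min to compound (0.001-10 μM) in Na-containing HEPES/Tris buffer pH 7.4. Uptake of ^14C-AMG (500 μM final) ran 2 h at 37° C, then Na-dependent uptake was counted by scintillation.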

[2] = target: T2, human SGLT2 (Homo sapiens, UniProt P31639); experiment: SGLT2 assay: Na-dependent 14C-AMG uptake in CHO-K1 cells stably expressing human SGLT2; assay type: cell-based; conditions: for IC50: 500 μM AMG, 2 hours at 37° C.
T2 construct: expressed in transfected cells; host or cells: CHO-K1
T2 sequence (P31639 1-672): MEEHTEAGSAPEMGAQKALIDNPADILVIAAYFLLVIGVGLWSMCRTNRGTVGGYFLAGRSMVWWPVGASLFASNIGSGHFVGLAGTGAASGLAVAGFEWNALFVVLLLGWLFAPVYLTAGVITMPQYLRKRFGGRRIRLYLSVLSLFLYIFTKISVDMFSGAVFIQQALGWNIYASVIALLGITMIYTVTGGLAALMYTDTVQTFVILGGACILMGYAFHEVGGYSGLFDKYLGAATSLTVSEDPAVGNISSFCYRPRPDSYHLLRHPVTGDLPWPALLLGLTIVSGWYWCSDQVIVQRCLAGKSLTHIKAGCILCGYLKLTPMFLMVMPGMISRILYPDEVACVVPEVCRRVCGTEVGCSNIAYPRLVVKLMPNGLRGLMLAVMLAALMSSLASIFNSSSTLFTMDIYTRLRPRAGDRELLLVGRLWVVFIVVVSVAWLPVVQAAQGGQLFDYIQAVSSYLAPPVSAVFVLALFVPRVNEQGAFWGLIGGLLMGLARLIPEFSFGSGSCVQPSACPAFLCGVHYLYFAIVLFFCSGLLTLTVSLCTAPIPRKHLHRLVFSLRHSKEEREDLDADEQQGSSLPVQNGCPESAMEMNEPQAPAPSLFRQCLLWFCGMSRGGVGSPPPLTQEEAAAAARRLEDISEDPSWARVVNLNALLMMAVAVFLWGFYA
How it was run: as §1

| IC50 [1] [nM] | IC50 [2] [nM] | inhibition at 0.3 µM [1] [%] | inhibition at 0.03 µM [2] [%] | Structure (SMILES) |
| --- | --- | --- | --- | --- |
| 18 | 2 | – | – | [2H]C1([2H])Cc2cc(Cc3cc([C@@H]4O[C@H](CO)[C@@H](O)[C@H](O)[C@H]4O)ccc3CC)ccc21 [Compound 87, (2S,3R,4R,5S,6R)-2-(3-((1,1-dideuterium-1,2-dihydrocyclo-butabenzen-4-yl)methyl)-4-ethylphenyl)-6-(hydroxymethyl)-tetrahydro-2H-pyran-3,4,5-triol] |
| 14 | 2 | – | – | Cc1cc(O)c([C@@H]2O[C@H](CO)C(F)(F)[C@H](O)[C@H]2O)cc1Cc1ccc2c(c1)CC2 [Compound 92, (2S,3R,4R,6R)-2-(5-(bicyclo[4.2.0]octa-1(6),2,4-trien-3-ylmethyl)-2-hydroxy-4-methylphenyl)-5,5-difluoro-6-(hydroxymethyl)tetrahydro-2H-pyran-3,4-diol] |
| – | – | 22 | 70 | OC[C@H]1O[C@@H](c2ccc(F)c(Cc3ccc4c(c3)CC4)c2)[C@H](O)[C@@H](O)[C@@H]1O [Compound 101] |
| 14 | 1 | – | – | CCOc1cc(Cl)c(Cc2ccc3c(c2)CC3)cc1[C@@H]1O[C@H](CO)C(F)(F)[C@H](O)[C@H]1O [Compound 104] |
| 158 | 5 | – | – | CCOc1cc(OC)c(Cc2ccc3c(c2)CC3)cc1[C@@H]1O[C@H](CO)C(F)(F)[C@H](O)[C@H]1O [Compound 109] |
| 22 | 1 | – | – | CCOc1cc(Cl)c(Cc2ccc3c(c2)CC3)cc1[C@@H]1O[C@H](CO)[C@@H](O)[C@H](O)[C@H]1O [Compound 115] |
| 22 | 1 | – | – | Cc1cc(OC2CC2)c([C@@H]2O[C@H](CO)[C@@H](O)[C@H](O)[C@H]2O)cc1Cc1ccc2c(c1)CC2 [Compound 118] |
| 80 | 1 | – | – | [2H]C1([2H])c2ccc(Cc3cc([C@@H]4O[C@H](CO)[C@@H](O)[C@H](O)[C@H]4O)ccc3Cl)cc2C1([2H])[2H] [Compound 123] |
| 15 | 1 | – | – | Cc1cc(O)c([C@@H]2O[C@H](CO)[C@@H](F)[C@H](O)[C@H]2O)cc1Cc1ccc2c(c1)CC2 [Compound 130] |
| 15 | 1 | – | – | COc1cc(Cl)c(Cc2ccc3c(c2)CC3)cc1[C@@H]1O[C@H](CO)[C@@H](F)[C@H](O)[C@H]1O [Compound 133] |
| 3 | 3 | – | – | COc1cc(O)c([C@@H]2O[C@H](CO)[C@@H](F)[C@H](O)[C@H]2O)cc1Cc1ccc2c(c1)CC2 [Compound 135] |
| 33 | 2 | – | – | Cc1ccc([C@@H]2O[C@H](CO)[C@@H](O)[C@H](O)[C@H]2O)cc1C(F)(F)c1ccc2c(c1)CC2 [Compound 141] |

More lines, now with the values behind:

| Structure (SMILES) | IC50 [1] [nM] | IC50 [2] [nM] | inhibition at 0.3 µM [1] [%] | inhibition at 0.03 µM [2] [%] |
| --- | --- | --- | --- | --- |
| Cc1ccc([C@@H]2O[C@H](CO)C(F)(F)[C@H](O)[C@H]2O)cc1Cc1ccc2c(c1)CC2 [Compound 91, (2S,3R,4R,6R)-2-(3-(bicyclo[4.2.0]octa-1(6),2,4-trien-3-ylmethyl)-4-methylphenyl)-5,5-difluoro-6-(hydroxymethyl)tetrahydro-2H-pyran-3,4-diol] | 49 | 1 | – | – |
| COc1cc(C)c(Cc2ccc3c(c2)CC3)cc1[C@@H]1O[C@H](CO)C(F)(F)[C@H](O)[C@H]1O [Compound 93, (2S,3R,4R,6R)-2-(5-(bicyclo[4.2.0]octa-1(6),2,4-trien-3-ylmethyl)-2-methoxy-4-methylphenyl)-5,5-difluoro-6-(hydroxymethyl)tetrahydro-2H-pyran-3,4-diol] | 95 | 3 | – | – |
| OC[C@H]1O[C@@H](c2cc(Cc3ccc4c(c3)CC4)c(Cl)cc2O)[C@H](O)[C@@H](O)C1(F)F [Compound 102] | 12 | 2 | – | – |
| COc1cc(Cl)c(Cc2ccc3c(c2)CC3)cc1[C@@H]1O[C@H](CO)C(F)(F)[C@H](O)[C@H]1O [Compound 103] | 13 | 2 | – | – |
| CCOc1cc(CC)c(Cc2ccc3c(c2)CC3)cc1[C@@H]1O[C@H](CO)[C@@H](O)[C@H](O)[C@H]1O [Compound 105] | 32 | 1 | – | – |
| OC[C@H]1O[C@@H](c2ccc(Cl)c(Cc3ccc4c(c3)CC4)c2)[C@H](O)[C@@H](O)C1(F)F [Compound 106] | – | – | 41 | 26 |
| COc1cc(O)c([C@@H]2O[C@H](CO)C(F)(F)[C@H](O)[C@H]2O)cc1Cc1ccc2c(c1)CC2 [Compound 107] | 10 | 1 | – | – |
| COc1cc(OC)c([C@@H]2O[C@H](CO)C(F)(F)[C@H](O)[C@H]2O)cc1Cc1ccc2c(c1)CC2 [Compound 108] | 27 | 1 | – | – |
| [2H]C([2H])([2H])Oc1cc(OC)c(Cc2ccc3c(c2)CC3)cc1[C@@H]1O[C@H](CO)[C@@H](O)[C@H](O)[C@H]1O [Compound 112] | 24 | 2 | – | – |
| CCOc1cc(C)c(Cc2ccc3c(c2)CC3)cc1[C@@H]1O[C@H](CO)[C@@H](O)[C@H](O)[C@H]1O [Compound 113] | 84 | 1 | – | – |
| CCOc1cc(OC)c(Cc2ccc3c(c2)CC3)cc1[C@@H]1O[C@H](CO)[C@@H](O)[C@H](O)[C@H]1O [Compound 114] | 37 | 2 | – | – |
| CCc1cc(OC2CC2)c([C@@H]2O[C@H](CO)[C@@H](O)[C@H](O)[C@H]2O)cc1Cc1ccc2c(c1)CC2 [Compound 116] | 13 | 2 | – | – |
| OC[C@H]1O[C@@H](c2cc(Cc3ccc4c(c3)CC4)c(Cl)cc2OC2CC2)[C@H](O)[C@@H](O)[C@@H]1O [Compound 117] | 50 | 2 | – | – |
| Cc1c(Cc2ccc3c(c2)CC3)cc([C@@H]2O[C@H](CO)[C@@H](O)[C@H](O)[C@H]2O)c(O)c1I [Compound 120] | 14 | 7 | – | – |
| CCc1cc(OC(F)F)c([C@@H]2O[C@H](CO)[C@@H](O)[C@H](O)[C@H]2O)cc1Cc1ccc2c(c1)CC2 [Compound 122] | – | – | 53 | 55.5 |
| Cc1ccc([C@@H]2O[C@H](CO)[C@@H](F)[C@H](O)[C@H]2O)cc1Cc1ccc2c(c1)CC2 [Compound 126] | 52 | 4 | – | – |
| CCc1cc(O)c([C@@H]2O[C@H](CO)[C@@H](F)[C@H](O)[C@H]2O)cc1Cc1ccc2c(c1)CC2 [Compound 127] | 1 | 2 | – | – |
| CCc1ccc([C@@H]2O[C@H](CO)[C@@H](F)[C@H](O)[C@H]2O)cc1Cc1ccc2c(c1)CC2 [Compound 128] | 47 | 8 | – | – |
| OC[C@H]1O[C@@H](c2cc(Cc3ccc4c(c3)CC4)c(Cl)cc2O)[C@H](O)[C@@H](O)[C@@H]1F [Compound 129] | 4 | 1 | – | – |
| CCOc1cc(C)c(Cc2ccc3c(c2)CC3)cc1[C@@H]1O[C@H](CO)[C@@H](F)[C@H](O)[C@H]1O [Compound 131] | 49 | 1 | – | – |
| CCOc1cc(Cl)c(Cc2ccc3c(c2)CC3)cc1[C@@H]1O[C@H](CO)[C@@H](F)[C@H](O)[C@H]1O [Compound 132] | 18 | 1 | – | – |
| OC[C@H]1O[C@@H](c2ccc(Cl)c(Cc3ccc4c(c3)CC4)c2)[C@H](O)[C@@H](O)[C@@H]1F [Compound 134] | 36 | 2 | – | – |
| COc1cc(OC)c([C@@H]2O[C@H](CO)[C@@H](F)[C@H](O)[C@H]2O)cc1Cc1ccc2c(c1)CC2 [Compound 136] | 9 | 1 | – | – |
| CCOc1cc(OC)c(Cc2ccc3c(c2)CC3)cc1[C@@H]1O[C@H](CO)[C@@H](F)[C@H](O)[C@H]1O [Compound 137] | 20 | 1 | – | – |
| OC[C@H]1O[C@@H](c2ccc(Cl)c(C(F)(F)c3ccc4c(c3)CC4)c2)[C@H](O)[C@@H](O)[C@@H]1O [Compound 140] | 50 | 2 | – | – |
| Cc1ccc([C@@H]2O[C@H](CO)[C@@H](F)[C@H](O)[C@H]2O)cc1C(F)(F)c1ccc2c(c1)CC2 [Compound 142] | 133 | 23 | – | – |

Source: patent US10815210B2, “Benzocyclobutane derivatives useful as dual SGLT1 / SGLT2 modulators” (Janssen Pharmaceutica NV, priority 2016, dated 2020)
